Experimental data as given in paper PMC11500415, “Chemical inhibition of stomatal differentiation by perturbation of the master-regulatory bHLH heterodimer via an ACT-Like domain” (Nature Communications, 2024).
Several values for one entry are separate records, joined by “and”; a condition that tells them apart may be missing. Equal entries are not always repeated.

Experiments:
MUTE_ACTL = target: T1, MUTE_ACTL (Arabidopsis thaliana, UniProt Q9M8K6); test: ITC direct binding; set-up: species or system A. thaliana; settings: for binding to MUTE analyzed by ITC (in words): ITC (Supplementary Fig. 8, Supplementary Table 2)
T1 construct: MUTE-ACTL (114-202); made in house; host or cells: E. coli BL21
Excerpt: (§1) A. thaliana SCRM (1-494), ΔNSPCH (98-364), MUTE (1-202), ΔNFAMA (190-414), MUTEΔC (1-114), MUTER133A_R134A, MUTEE162A_E163A, MUTER133A_R134A_E162A_E163A, SCRM-ACTL (405-494), MUTE-ACTL (114-202), SPCH-ACTL (285-364), FAMA-ACTL (306-414), MUTE_ACTLR133A_R134A, MUTE_ACTLE162A_E163A, MUTE_ACTLR133A_R134A_E162A_E163A were cloned into pGEX-4T-1 vector with an N-terminal GST tag and a thrombin cleavage sequence. For protein expression, the constructs were transformed into E. coli strain BL21. For each transformant, a single colony was selected and incubated in 10 ml LB liquid media. The overnight-incubated E. coli suspensions were transferred to 1 L LB medium and incubated at 37 °C for around 2 h until the OD600 reached 0.4–0.6. The isopropyl β-D-1-thiogalactopyranoside ([…] of final concentration) was added to the cultures and the strains were incubated at 22 °C for a further 18 h. GST-fused proteins were purified using glutathione agarose resin. The soluble portion of the cell lysate was loaded onto a GST-Sepharose column. Nonspecifically bound proteins were removed by washing the column with 20 mM Tris pH 8.0, 200 mM NaCl. The bound GST-fused protein was eluted with 10 mm glutathione and 20 mM Tris pH 8.0, 200 mM NaCl. The GST-fused proteins were exchanged with phosphate-buffered saline buffer, and then the solution was treated with 50 μg of thrombin for 10–12 h at 16 ^οC. The GST portion of the protein was cleaved during thrombin digestion, and then the whole solution was reloaded onto the glutathione S-transferase column to obtain pure protein. The purified proteins were further purified by gel filtration on a Superdex-200 (GE) column using fast protein liquid chromatography and phosphate buffer (pH 7.2) as the eluent. The purity of the protein was checked by SDS-PAGE. For detailed lists of oligo DNA and plasmid information, see Supplementary Tables 5, 6, respectively.
Binding of the small molecule Stomidazolone (3) to SCRM, MUTE, SPCH, FAMA, MUTEΔC, MUTE_ACTL, SCRM_ACTL, SPCH_ACTL and FAMA_ACTL, MUTER133A_R134A, MUTEE162A_E163A, MUTER133A_R134A_E162A_E163A, as well as SCRM binding to MUTE in the presence and absence of Stomidazolone (3) / AYSJ1059 (5) /AYSJ1061 (6) was characterized at 30 °C using a Malvern PEAQ-ITC microcalorimeter. All the protein samples were dialyzed overnight using PBS buffer containing 2% DMSO and 1 mM DTT. Stomidazolone was dissolved in PBS buffer containing 2% DMSO and 1 mM DTT. Titrations were performed by injecting 1 × 0.5-μL and 12 × 3-μL or 1 × 0.75-μL and 18 × 2-μL or 1 × 0.2-μL and 25 × 1.3-μL aliquots of 1 mM Stomidazolone / AYSJ1059 / AYSJ1061 to 5-30 μM of protein in PBS buffer pH 7.4, containing 2% DMSO and 1 mM DTT. All titrations were carried out at least twice. The raw data were corrected using buffer and protein controls and analyzed using the software supplied by the manufacturer. See Supplementary Table 3 for details.

SCRM-MUTE = target: T2, SCRM-MUTE (Arabidopsis thaliana, UniProt Q9M8K6); test: BLI of SCRM-MUTE interaction in presence of compound; assay type: binding, A. thaliana; settings: for effect on the SCRM-MUTE heterodimerization (in words): BLI and ITC (Supplementary Fig. 9, Supplementary Tables 2, 3); for Response: BLI, GST-SCRM loaded, in nm (unit assumed)
T2 construct: MUTE (1-202); GST (N, cleaved yes); made in house; host or cells: E. coli BL21
T2 sequence (Q9M8K6 1-202): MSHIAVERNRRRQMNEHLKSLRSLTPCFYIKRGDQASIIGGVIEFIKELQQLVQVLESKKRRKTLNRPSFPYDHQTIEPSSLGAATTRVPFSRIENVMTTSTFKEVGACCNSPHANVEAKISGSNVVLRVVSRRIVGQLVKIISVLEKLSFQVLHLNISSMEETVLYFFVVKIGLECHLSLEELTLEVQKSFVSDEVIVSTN
Excerpt: as §1
The binding affinities of SCRM to MUTE / MUTER133A_R134A / MUTEE162A_E163A / MUTER133A_R134A_E162A_E163A in presence and absence of Stomidazolone (3) and its analogues (AYSJ1059 (5) and AYSJ1061 (6)), and Stomidazolone / AYSJ1059 / AYSJ1061 interactions with GST-tagged SCRM, MUTE, SPCH, FAMA, MUTE ΔACTL, MUTE_ACTL, SCRM_ACTL, SPCH_ACTL and FAMA_ACTL, MUTER133A_134A, MUTEE162A_E163A, MUTER133A_R134A_E162A_E163A were measured using the Octet Red96 system (ForteBio, Pall Life Sciences) following the manufacturer’s protocols. The optical probes coated with anti-GST were first loaded with 500 nM GST tagged proteins before kinetic binding analyses. The experiment was performed in 96-well plates maintained at 30 °C. Each well was loaded with 200 μL reaction volume for the experiment. The binding buffer used in these experiments contained 1× PBS supplemented with 2% DMSO, 0.02% Tween20. The concentrations of the Stomidazolone as the analyte in the binding buffer were 100, 50, 25, 12.5, 6.25, 3.12, and 1.56 μM. There was no binding of the analytes to the unloaded probes as shown by the control wells. Binding kinetics to all seven concentrations of the analytes were measured simultaneously using default parameters on the instrument. The data were analyzed using the Octet data analysis software. The association and dissociation curves were fit with the 1:1 homogeneous ligand model. The kobs (observed rate constant) values were used to calculate Kd, with steady-state analysis of the direct binding. See Supplementary Table 3 for details.

| Structure (SMILES) | binding to MUTE analyzed by ITC (in words) (MUTE_ACTL) | effect on the SCRM-MUTE heterodimerization (in words) (SCRM-MUTE) | driving force of binding to the ACTL domain (in words) (MUTE_ACTL; ITC data) | -T△S (MUTE_ACTL; ITC, MUTE_ACTL) | △G (MUTE_ACTL; ITC, MUTE_ACTL) | △H (MUTE_ACTL; ITC, MUTE_ACTL) | Kd (MUTE_ACTL; ITC, MUTE_ACTL, ND = no binding) [µM] | Response (SCRM-MUTE; MUTE+Stomid Conc. 78 nM) | Response (SCRM-MUTE; MUTE+Stomid Conc. 78 nM, listed as Stomid) | Response (SCRM-MUTE; MUTE+Stomid Conc. 156 nM) | Response (SCRM-MUTE; MUTE+Stomid Conc. 312.5 nM) | Response (SCRM-MUTE; MUTE+Stomid Conc. 625 nM) | Response (SCRM-MUTE; MUTE+Stomid Conc. 1250 nM) | Response (SCRM-MUTE; MUTE+Stomid Conc. 2500 nM) | Response (SCRM-MUTE; MUTE+Stomid Conc. 5000 nM) |
| --- | --- | --- | --- | --- | --- | --- | --- | --- | --- | --- | --- | --- | --- | --- | --- |
| Cc1ccc(C2(NS(=O)(=O)c3ccccc3)N=C(c3ccccc3)C(=O)N2S(=O)(=O)c2ccccc2)cc1 (centres unmarked) [AYSJ1059] | no binding | minimal effects | – | – | – | – | – | – | – | – | – | – | – | – | – |
| O=C1C(c2ccccc2)=NC(NS(=O)(=O)c2ccccc2)(c2ccc(Br)cc2)N1S(=O)(=O)c1ccccc1 (centres unmarked) [AYSJ1061] | no binding | minimal effects | – | – | – | – | – | – | – | – | – | – | – | – | – |
| O=C1C(c2ccccc2)=NC(NS(=O)(=O)c2ccccc2)(c2ccccc2)N1S(=O)(=O)c1ccccc1 (centres unmarked) [Stomidazolone] | – | – | primarily driven by enthalpic interactions | 14.4 ± 0.3 | -8.1 ± 0.2 | -22.5 ± 0.5 | 9.8 ± 1.3 | 0.031 | 0.0213 | 0.0603 and 0.0323 | 0.0687 and 0.078 | 0.1313 and 0.1154 | 0.2145 and 0.1812 | 0.2742 and 0.2312 | 0.2812 and 0.3134 |
